Assay results: patent US20230373974A1, “MODULATORS OF CYSTIC FIBROSIS TRANSMEMBRANE CONDUCTANCE REGULATOR” (VERTEX PHARMACEUTICALS INCORPORATED, priority 2020, published 2023)

Target: T1, F508del in NIH 3T3 cells (Homo sapiens, UniProt P13569, DEL508-508)
T1 construct: expressed in transfected cells
Assay: 3T3 assay: membrane potential optical assay for F508del correction
Type: cell-based, mouse
Conditions: F508del NIH 3T3 cells; for EC50: incubated with compound 18-24 hours at 37° C., forskolin activation; for Emax: NIH3T3, efficacy compared to lumacaftor in combination with acutely added 300 nM Ivacaftor, read-out: 3T3 Max Activity (%)
Text: Membrane Potential Optical Methods for Assaying F508del Modulation Properties of Compounds The assay utilizes fluorescent voltage sensing dyes to measure changes in membrane potential using a fluorescent plate reader (e.g., FLIPR III, Molecular Devices, Inc.) as a readout for increase in functional F508del in NIH 3T3 cells. The driving force for the response is the creation of a chloride ion gradient in conjunction with channel activation by a single liquid addition step after the cells have previously been treated with compounds and subsequently loaded with a voltage sensing dye. 2. Identification of Corrector Compounds To identify correctors of F508del, a single-addition HTS assay format was developed. This HTS assay utilizes fluorescent voltage sensing dyes to measure changes in membrane potential on the FLIPR III as a measurement for increase in gating (conductance) of F508del in F508del NIH 3T3 cells. The F508del NIH 3T3 cell cultures were incubated with the corrector compounds at a range of concentrations for 18-24 hours at 37° C., and subsequently loaded with a redistribution dye. The driving force for the response is a Cl^− ion gradient in conjunction with channel activation with forskolin in a single liquid addition step using a fluorescent plate reader such as FLIPR III. […] Solutions […] Chloride-free bath solution: Chloride salts in Bath Solution #1 (above) are substituted with gluconate salts. 4. Cell Culture NIH3T3 mouse fibroblasts stably expressing F508del are used for optical measurements of membrane potential. The cells are maintained at 37° C. in 5% CO2 and 90% humidity in Dulbecco's modified Eagle's medium supplemented with 2 mM glutamine, 10% fetal bovine serum, 1×NEAA, b-ME, 1×pen/strep, and 25 mM HEPES in 175 cm^2 culture flasks. For all optical assays, the cells were seeded at ˜20,000/well in 384-well Matrigel-coated plates. For the correction assays, the cells are cultured at 37° C. with and without compounds for 16-24 hours.

T1 sequence (P13569 with tags, fused parts or gaps DEL508-508): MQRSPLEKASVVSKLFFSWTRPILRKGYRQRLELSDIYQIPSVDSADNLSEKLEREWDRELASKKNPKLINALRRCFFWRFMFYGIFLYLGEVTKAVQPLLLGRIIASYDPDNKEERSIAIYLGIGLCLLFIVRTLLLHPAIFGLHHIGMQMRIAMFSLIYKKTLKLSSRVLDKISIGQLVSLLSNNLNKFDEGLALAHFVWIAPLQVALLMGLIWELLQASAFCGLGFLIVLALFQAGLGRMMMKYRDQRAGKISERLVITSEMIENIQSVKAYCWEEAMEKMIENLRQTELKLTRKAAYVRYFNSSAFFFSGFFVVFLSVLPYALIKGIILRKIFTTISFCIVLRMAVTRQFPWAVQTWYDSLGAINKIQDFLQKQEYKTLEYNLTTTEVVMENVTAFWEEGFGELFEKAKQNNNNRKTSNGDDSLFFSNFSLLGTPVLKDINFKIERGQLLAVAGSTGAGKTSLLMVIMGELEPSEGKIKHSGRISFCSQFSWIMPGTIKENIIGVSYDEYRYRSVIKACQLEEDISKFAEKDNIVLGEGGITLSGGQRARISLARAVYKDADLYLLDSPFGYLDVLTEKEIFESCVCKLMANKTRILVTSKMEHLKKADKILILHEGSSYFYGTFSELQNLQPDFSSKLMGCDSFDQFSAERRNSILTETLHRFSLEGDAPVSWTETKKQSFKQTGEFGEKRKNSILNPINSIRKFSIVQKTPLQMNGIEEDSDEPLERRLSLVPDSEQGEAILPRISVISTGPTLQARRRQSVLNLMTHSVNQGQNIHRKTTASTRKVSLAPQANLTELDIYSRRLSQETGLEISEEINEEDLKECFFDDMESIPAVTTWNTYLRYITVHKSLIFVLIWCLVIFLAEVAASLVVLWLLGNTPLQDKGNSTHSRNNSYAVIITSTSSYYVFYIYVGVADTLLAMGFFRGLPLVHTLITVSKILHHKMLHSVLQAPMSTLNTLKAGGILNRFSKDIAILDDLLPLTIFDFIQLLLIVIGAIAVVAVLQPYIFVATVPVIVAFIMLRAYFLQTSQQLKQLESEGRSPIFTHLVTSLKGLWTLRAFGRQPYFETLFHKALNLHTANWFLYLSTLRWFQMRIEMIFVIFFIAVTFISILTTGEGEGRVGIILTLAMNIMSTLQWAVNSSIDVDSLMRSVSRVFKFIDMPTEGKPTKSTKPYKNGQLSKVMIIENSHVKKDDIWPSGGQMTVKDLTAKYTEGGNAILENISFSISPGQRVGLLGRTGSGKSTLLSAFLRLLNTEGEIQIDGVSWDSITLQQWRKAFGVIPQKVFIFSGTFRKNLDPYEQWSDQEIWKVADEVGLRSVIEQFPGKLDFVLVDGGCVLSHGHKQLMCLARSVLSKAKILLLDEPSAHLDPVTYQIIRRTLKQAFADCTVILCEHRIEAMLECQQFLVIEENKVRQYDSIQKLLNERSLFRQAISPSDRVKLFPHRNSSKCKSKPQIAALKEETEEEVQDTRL

Row | Structure (SMILES) | EC50 [nM] | Emax [%]
1 | COc1cccc(-n2nc(NS(=O)(=O)c3ccccc3)c3ccc(C(C)(C)C)nc32)c1 [Compound 50] | < 1000 | 30 to 60
2 | COc1ccccc1-n1nc(NS(=O)(=O)c2ccccc2)c2ccc(C(C)(C)C)nc21 [Compound 51] | 1000 to 3000 | 30 to 60
3 | Cc1cc(C)c(-n2nc(NS(=O)(=O)c3ccccc3)c3cccnc32)c(C)c1 [Compound 52] |  | 30 to 60
4 | Cc1cc(C)c(-n2nc(NS(=O)(=O)c3cccc4c3OCCO4)c3ccc(C(C)(C)C)nc32)c(C)c1 [Compound 53] | < 1000 | 30 to 60
5 | COc1cccc(OC)c1S(=O)(=O)Nc1nn(-c2c(C)cc(C)cc2C)c2nc(C(C)(C)C)ccc12 [Compound 54] |  | < 30
6 | COc1ccc(N)cc1S(=O)(=O)Nc1nn(-c2c(C)cc(C)cc2C)c2nc(C(C)(C)C)ccc12 [Compound 55] | 3000 to 30000 | 30 to 60
7 | Cc1cc(C)c(-n2nc(NS(=O)(=O)c3ncc[nH]3)c3ccc(C(C)(C)C)nc32)c(C)c1 [Compound 56] | 1000 to 3000 | 30 to 60
8 | COc1cc(OC)cc(S(=O)(=O)Nc2nn(-c3c(C)cc(C)cc3C)c3nc(C(C)(C)C)ccc23)c1 [Compound 57] |  | < 30
9 | COc1ccc(OC)c(S(=O)(=O)Nc2nn(-c3c(C)cc(C)cc3C)c3nc(C(C)(C)C)ccc23)c1 [Compound 58] | < 1000 | 30 to 60
10 | COc1ccccc1S(=O)(=O)Nc1nn(-c2c(C)cc(C)cc2C)c2nc(C(C)(C)C)ccc12 [Compound 59] | 1000 to 3000 | 30 to 60
11 | COc1cccc(S(=O)(=O)Nc2nn(-c3c(C)cc(C)cc3C)c3nc(C(C)(C)C)ccc23)c1 [Compound 60] | < 1000 | 30 to 60
12 | Cc1cc(C)c(-n2nc(NS(=O)(=O)c3cccc(N)c3)c3ccc(C(C)(C)C)nc32)c(C)c1 [Compound 61] | < 1000 | 30 to 60
13 | Cc1cc(C)c(-n2nc(NS(=O)(=O)c3cccc(Cl)c3)c3ccc(C(C)(C)C)nc32)c(C)c1 [Compound 62] |  | < 30
14 | Cc1cccc(S(=O)(=O)Nc2nn(-c3c(C)cc(C)cc3C)c3nc(C(C)(C)C)ccc23)c1 [Compound 63] |  | < 30
15 | COc1ccc(S(=O)(=O)Nc2nn(-c3c(C)cc(C)cc3C)c3nc(C(C)(C)C)ccc23)cc1 [Compound 64] |  | < 30
16 | Cc1cc(C)c(-n2nc(NS(=O)(=O)c3ccc(Cl)cc3)c3ccc(C(C)(C)C)nc32)c(C)c1 [Compound 65] |  | < 30
17 | Cc1ccc(S(=O)(=O)Nc2nn(-c3c(C)cc(C)cc3C)c3nc(C(C)(C)C)ccc23)cc1 [Compound 66] |  | < 30
18 | Cc1cc(C)c(-n2nc(NS(=O)(=O)c3ccccc3N)c3ccc(C(C)(C)C)nc32)c(C)c1 [Compound 67] |  | < 30
19 | Cc1cc(C)c(-n2nc(NS(=O)(=O)c3ccccc3Cl)c3ccc(C(C)(C)C)nc32)c(C)c1 [Compound 68] |  | < 30
20 | Cc1cc(C)c(-n2nc(NS(=O)(=O)c3ccccc3C)c3ccc(C(C)(C)C)nc32)c(C)c1 [Compound 69] |  | < 30
21 | Cc1ccccc1-n1nc(NS(=O)(=O)c2ccccc2)c2ccc(Br)cc21 [Compound 70, N-[6-bromo-1-(o-tolyl)indazol-3-yl]benzenesulfonamide] | 1000 to 3000 | 30 to 60
22 | Cc1cc(C)c(-n2nc3nc(C(C)(C)C)ccc3c2NS(=O)(=O)c2ccccc2)c(C)c1 [Compound 71] |  | < 30

Row | Structure (SMILES) | EC50 [nM] | Emax [%]
23 | C=C(C)c1ccc2c(NS(=O)(=O)c3ccccc3)nn(-c3ccccc3C)c2c1 [Compound 72, N-[6-isopropenyl-1-(o-tolyl)indazol-3-yl]benzenesulfonamide] | 1000 to 3000 | > 60
24 | Cc1ccccc1-n1nc(NS(=O)(=O)c2ccccc2)c2ccc(C(C)C)cc21 [Compound 73, N-[6-isopropyl-1-(o-tolyl)indazol-3-yl]benzenesulfonamide] | 1000 to 3000 | 30 to 60
25 | CCn1nc(NS(=O)(=O)c2ccccc2)c2ccccc21 [Compound 74] |  | < 30
26 | Cc1cccc(C)c1-c1nc(NS(=O)(=O)c2ccccc2)nc2c1CCCC2(C)c1ccccc1 (centres unmarked) [Compound 76, N-[4-(2,6-Dimethylphenyl)-8-methyl-8-phenyl-6,7-dihydro-5H-quinazolin-2-yl]benzenesulfonamide] | < 1000 | > 60
27 | Cc1cc(C)cc(-c2nc(NS(=O)(=O)c3ccccc3)cc3ccccc23)c1 [Compound 77, N-[1-(3,5-dimethylphenyl)-3-isoquinolyl]benzenesulfonamide] | < 1000 | 
28 | Cc1cc(C)cc(-c2cc(NS(=O)(=O)c3ccccc3)nc3ccccc23)c1 [Compound 78, N-[4-(3,5-Dimethylphenyl)-2-quinolyl]benzenesulfonamide] |  | < 30
29 | Cc1cc(NS(=O)(=O)c2ccccc2)nc2ccccc12 [Compound 81] |  | < 30
30 | O=S(=O)(Nc1ccc2cc[nH]c2n1)c1ccccc1 [Compound 82] |  | < 30
31 | Cc1ccc(-n2ncc3c2CC(C)(C)CC3NS(=O)(=O)c2ccccc2)cc1 (centres unmarked) [Compound 83] |  | < 30
32 | CC(C)(C)C1CCc2nc(NS(=O)(=O)c3ccccc3)ncc2C1 (centres unmarked) [Compound 84] |  | < 30
33 | CC(C)n1c(NS(=O)(=O)c2ccccc2)nc2ccccc21 [Compound 85] |  | < 30
34 | Cn1c(NS(=O)(=O)c2ccccc2)nc2ccccc21 [Compound 86] |  | < 30
35 | CC(C)(C)c1ccc2c(NS(=O)(=O)c3ccccc3)cn(-c3cccc(Cl)c3)c2n1 [Compound 87] |  | < 30
36 | Cc1cc(C)cc(-n2cc(NS(=O)(=O)c3ccccc3)c3ccc(C(C)(C)C)nc32)c1 [Compound 88] |  | < 30
37 | Cc1ccccc1-n1cc(NS(=O)(=O)c2ccccc2)c2ccc(C(C)(C)C)nc21 [Compound 89] |  | < 30
38 | Cc1cc(C)c(-c2nnc(NS(=O)(=O)c3ccccc3)c3ccc(C(C)(C)C)nc23)c(C)c1 [Compound 90] |  | < 30
39 | Cc1cc(C)cc(-n2c(NS(=O)(=O)c3ccccc3)nc3cc(C(C)(C)C)ccc32)c1 [Compound 91] |  | < 30
40 | Cc1cc(C)cc(-n2c(NS(=O)(=O)c3ccccc3)nc3ccc(C(C)(C)C)cc32)c1 [Compound 92] |  | < 30
41 | CC(C)(C)c1ccc2nc(NS(=O)(=O)c3ccccc3)[nH]c2c1 [Compound 93] |  | < 30
42 | Cc1cc(C)c(Oc2cc(C(C)(C)C)cc3nnc(NS(=O)(=O)c4cccc(N)c4)n23)c(C)c1 [Compound 94] |  | < 30
43 | Cc1cc(C)c(Oc2cc(C(C)(C)C)cc3nnc(NS(=O)(=O)c4ccccc4)n23)c(C)c1 [Compound 95] |  | < 30
